Assay results as given in article PMC5428058, “Local delivery of novel MRTF/SRF inhibitors prevents scar tissue formation in a preclinical model of fibrosis” (Scientific Reports, 2017).

Experiments:
[1] = system: SRF reporter gene; experiment: SRF reporter gene assay in transfected cells; assay type: cell-based; conditions: human and rabbit conjunctival fibroblasts (3DA.Luc), HEK293 (SRE.L luc), 24 hours
Method: Human or rabbit conjunctival fibroblasts were plated at 2 × 10^4 cells/well in 24-well plates (Falcon, Fisher Scientific) for transient transfection. Conjunctival fibroblasts in each well were co-transfected using 2.5 μl Lipofectamine LTX and 0.5 μl Plus reagent (Invitrogen) with 8 ng of SRF reporter plasmid 3DA.Luc, 20 ng of pTK-Renilla-Luc and 172 ng of pEF in OptiMEM (Gibco)[58]. After 2 hours of transfection, fibroblasts were allowed to recover in DMEM +10% FCS overnight.
HEK293T cells were plated at 2 × 10^4 cells/well in 96-well plates (Falcon, Fisher Scientific) and co-transfected using Lipofectamine 2000 (Invitrogen) with 4 ng of SRF reporter plasmid SRE.L. luciferase, and 2 ng of either Gα12Q231L or pcDNA3.1/Zeo(−) diluted in Opti-MEM (Gibco). After 5 hours of transfection, cells were allowed to recover in DMEM +10% FCS overnight.
The next day, the cells were serum starved in DMEM +0.3% FCS and 5, 25, 50, or 100 μM of CCG-222740 or CCG-203971 or 0.1% DMSO control for 24 hours. The cells were then lysed and luciferase levels were measured using a Luciferase Assay System (Promega), according to the manufacturer’s instructions. Each experiment was carried out in triplicates for each condition and the experiment was repeated three times.

[2] = system: αSMA-positive human conjunctival fibroblasts; experiment: alpha smooth muscle actin staining; assay type: cell-based; conditions: 48 hours, control 24.5%
Method: Human conjunctival fibroblasts were plated on 20 mm glass coverslips at 1 × 10^5 cells/well in 6-well plates (Falcon, Fisher Scientific). The next day, the fibroblasts were treated for 48 hours with 10 or 25 μM of CCG-222740 or CCG-203971 or 0.1% DMSO control in DMEM +10% FCS. The samples were fixed in 4% paraformaldehyde for 10 minutes, washed three times in PBS, and permeabilised in PBS 0.2% TX-100 (Triton X-100, Sigma) for 20 minutes. The samples were blocked with 5% fetal calf serum/5% bovine serum albumin (Sigma) for 1 hour. The samples were incubated overnight with the Cy3-labelled alpha smooth muscle actin antibody (1:1000, Sigma) in a wet chamber at 4 °C in the dark. The next day, the samples were washed twice in PBS 0.1% TX-100 and incubated with phalloidin (1:200) and DAPI (1:2000) for 1 hour at room temperature. The samples were then mounted on slides and imaged using an Upright780 Zeiss LSM confocal microscope. The proportion of fibroblasts with prominent αSMA-positive stress fibres was quantified visually from three random fields of view per treatment group in 3 independent experiments.

[3] = system: New Zealand white rabbits; experiment: rabbit glaucoma filtration surgery model of scar tissue formation, clinical end-points; assay type: in vivo; conditions: for increase in IOP survival: 100 μM subconjunctival, IOP remains below baseline; for increase in long-term success of surgery (bleb survival) compared to vehicle control: 100 μl of 100 μM subconjunctival, day 30; for mean day of bleb failure: CCG compounds 100 μM subconjunctival, MMC 0.2 mg/ml intraoperative, vehicle 14 days; for intraocular pressure (IOP): versus vehicle control or baseline
Source text: 24 female New Zealand white rabbits (2–2.4 kg, 12—14 weeks, Highgate, UK) underwent experimental glaucoma filtration surgery to the left eye under general anaesthesia, [28]. A superonasal fornix-based conjunctival flap was raised behind the limbus and a micro-vitreoretinal blade (20 gauge, 0.90 mm, Surgistar USA) was used to make a partial thickness scleral tunnel to the corneal stroma. A 22 gauge, 25 mm intravenous cannula was passed through the tunnel and the needle was removed once it was visible in the cornea. The cannula was advanced into the mid-pupillary area, trimmed at its scleral edge and fixed to the scleral surface using a 10–0 nylon suture (Alcon, USA). The conjunctival incision was closed using two interrupted 10–0 nylon sutures. In a randomised, prospective, single-masked observer study, the rabbits received either intraoperative 0.2 mg/ml mitomycin-C (MMC) [N = 6], or postoperative subconjunctival injections (100 μl) of 100 μM CCG-203971 [N = 6] or 100 μM CCG-222740 [N = 6] or vehicle control [N = 6] daily for the first nine days followed by twice weekly for three weeks, [33]. CCG-222740 and CCG-203971 were dissolved in 100% DMSO (Sigma, UK) at 10 mM and then diluted to 100 μM with sterile PBS. The same volume of DMSO was diluted with PBS for the vehicle control. For the MMC-treated group, a small corneal light shield sponge was soaked in 1 ml of 0.2 mg/ml MMC and applied over the conjunctiva for 3 minutes, and the area was then thoroughly washed with 50 ml of physiologic balanced salt solution (Alcon Laboratories, Inc., Fort Worth, TX). All the postoperative subconjunctival injections were given at the same site by a single-masked researcher.
The animals were evaluated twice weekly by a single-masked researcher. Bleb width and length were measured using calipers and intraocular pressures (IOP) were measured using a tonovet (Icare). The primary efficacy end-point was bleb survival as this is indicative of the long-term opening of the filtration pathway created during surgery. Bleb failure was defined as the appearance of a flat, scarred, and vascularised bleb associated with a deep anterior chamber. IOP survival, defined as when the intraocular pressure remains below the baseline IOP measurement, and bleb area were used as secondary end-points. Conjunctival vascularity was graded on a scale of 0 to 3 (0: avascular, 1: normal, 2: hyperaemic, 3: very hyperaemic).

[4] = drug levels in aqueous, vitreous and serum by LC/MS; assay type: in vivo; conditions: rabbit, day 30, 48 hours after the last subconjunctival dose
Method: All animals were carefully evaluated for any signs of ocular or systemic toxicity during the study. At day 30, 100 µl of aqueous, 1 ml of vitreous, and 1 ml of venous blood were sampled on the rabbit eyes receiving CCG-222740 or CCG-203971 or vehicle control. The venous blood samples were left to clot for 30 minutes at room temperature, spun at 4000 rpm for 15 minutes at 4 °C, and the serum was collected as the supernatant. Samples were extracted in acetonitrile and the levels of CCG-222740 and CCG-203971 were measured in the aqueous, vitreous, and serum using liquid chromatography/mass spectrometry (LC/MS) in the Metabolomics Core at Michigan State University (East Lansing, MI).

SMILES: O=C(Nc1ccc(Cl)cc1)C1CCCN(C(=O)c2cccc(-c3ccco3)c2)C1 (stereo not shown) [CCG-203971]
- inhibition of baseline SRF reporter activity [1]: ~100%
- percentage of αSMA-positive fibroblasts ([2]; 10 μM): 17.0%
- percentage of αSMA-positive fibroblasts ([2]; 25 μM): 8.6%
- bleb area compared to vehicle control [3]: no statistically significant differences
- increase in IOP survival [3]: 33%
- increase in long-term success of surgery (bleb survival) compared to vehicle control [3]: 33%
- mean day of bleb failure [3]: 22.5 days
- intraocular pressure (IOP) [3]: remained consistently lower than baseline measurements
- drug level in aqueous [4]: below 20 nM
- drug level in serum [4]: below 20 nM
- drug level in vitreous [4]: below 20 nM

SMILES: O=C(Nc1ccc(Cl)cc1)C1CN(C(=O)c2cccc(-c3ccco3)c2)CC(F)(F)C1 (stereo not shown) [CCG-222740]
- inhibition of baseline SRF reporter activity [1]: ~100%
- percentage of αSMA-positive fibroblasts ([2]; 10 μM): 9.0%
- percentage of αSMA-positive fibroblasts ([2]; 25 μM): 2.2%
- bleb area compared to vehicle control [3]: significantly larger bleb area
- increase in IOP survival [3]: 67%
- increase in long-term success of surgery (bleb survival) compared to vehicle control [3]: 67%
- mean day of bleb failure [3]: 28.5 days
- intraocular pressure (IOP) [3]: remained consistently lower than baseline measurements
- drug level in aqueous [4]: below 20 nM
- drug level in serum [4]: below 20 nM
- drug level in vitreous [4]: below 20 nM
